# Patent US11395857B2, “Radiolabeled melanocortin 1 receptor-specific alpha-melanocyte-stimulating hormone analogues for imaging or therapy” (PROVINCIAL HEALTH SERVICES AUTHORITY, priority 2018, dated 2022)
# Read-outs that look alike come from different tables or passages of the source.
# How the values were obtained:
# B16F10 mouse melanoma [1] = assay: SPECT/CT imaging of mice bearing B16F10 mouse melanoma; format: in vivo, C57BL/6J mice; conditions: 24 h p.i.
# Description: SPECT/CT imaging experiments were conducted using a preclinical U-SPECT-II/CT scanner (MILabs). For SPECT scans, each tumour-bearing mouse was injected with approximately 37 MBq of ^177Lu-labeled αMSH analogues via tail vein under anesthesia. After the injection, mice were allowed to recover and roam freely in their cages. At 1, 4, 24, and 120 h p.i., the mice were sedated again with 2% isoflurane inhalation and positioned in the scanner, and kept warm by a heating pad. A 3 min CT scan was conducted to acquire anatomical information, followed by a 60 min static emission scan in list mode with an extra ultrahigh-sensitivity multipinhole mouse collimator. The images were reconstructed using the ordered subset expectation maximization algorithm (4 iterations, 32 subsets) and a 1 mm post-processing Gaussian filter. The radioactivity in the SPECT scans were decay corrected to the injection time in the PMOD software, and converted to DICOM for quantitation and visualization in the Inveon Research Workplace software (Siemens). SPECT images of all six αMSH analogues radiolabeled with ^177Lu in mice bearing B16F10 mouse melanoma at 24 h p.i. are showing in FIG. 5. […] The sustained tumour uptake is particularly beneficial for radioligand therapy.
# B16F10 mouse melanoma [2] = assay: Biodistribution of 177Lu-labeled αMSH analogues in mice bearing B16F10 mouse melanoma; format: in vivo, C57BL/6J mice; conditions: C57BL/6J mice, B16F10 melanoma
# Description: (§1) The B16-F10 mouse melanoma cells were cultured and inoculated in mice as described in Example 1.
# (§2) For biodistribution studies, approximately 1-2 MBq of ^177Lu-labeled αMSH analogues via tail vein under anesthesia. At 1, 4, 24, and 120 h p.i., the mice were euthanized by CO2 inhalation. Organs/tissues were harvested and the radioactivity was measured as described in Example 1.
# [3] = as above; format: in vivo, C57BL/6J mice; conditions: mouse, iv, total radioactivity, C57BL/6J mice, B16F10 melanoma
# Description: as §1, §2
# SK-MEL-1 human melanoma = assay: SPECT/CT imaging of mice bearing SK-MEL-1 human melanoma; format: in vivo, NRG mice; conditions: 24 h p.i.
# Description: SPECT/CT imaging experiments were conducted using the same conditions as described in Example 3. […] (FIG. 6).
structure (smiles),measurement,setting,value
"CCCC[C@H](NC(=O)CN1CCC(NC(=O)[C@H](CCCCNC(=O)CN2CCN(CC(=O)O)CCN(CC(=O)O)CCN(CC(=O)O)CC2)NC(=O)[C@H](CCC(=O)O)NC(=O)CCCc2ccc(I)cc2)CC1)C(=O)N[C@H]1CC(=O)NCCCC[C@@H](C(N)=O)N(C)C(=O)[C@H](Cc2c[nH]c3ccccc23)NC(=O)[C@H](CCCNC(=N)N)N(C)C(=O)[C@@H](Cc2ccccc2)NC(=O)[C@H](Cc2c[nH]cn2)NC1=O [^177Lu-labeled CCZ01118, metal not drawn]",Tumour visualization with SPECT imaging,B16F10 mouse melanoma [1],clearly visualized
same,"Biodistribution, B16F10 tumour",B16F10 mouse melanoma [2]; 1 h p.i.,24.4 ± 1.76 % ID/g
same,"Biodistribution, B16F10 tumour",B16F10 mouse melanoma [2]; 4 h p.i.,29.7 ± 5.23 % ID/g
same,"Biodistribution, B16F10 tumour",B16F10 mouse melanoma [2]; 24 h p.i.,18.4 ± 1.35 % ID/g
same,"Biodistribution, B16F10 tumour",B16F10 mouse melanoma [2]; 120 h p.i.,2.63 ± 0.21 % ID/g
same,tissue uptake at 1 h,"[3]; male, seminal glands, 1 h p.i., read-out: Biodistribution, Seminal glands",0.5 ± 0.11 %ID/g
same,tissue uptake at 4 h,"[3]; male, seminal glands, 4 h p.i., read-out: Biodistribution, Seminal glands",0.15 ± 0.06 %ID/g
same,tissue uptake at 24 h,"[3]; male, seminal glands, 24 h p.i., read-out: Biodistribution, Seminal glands",0.04 ± 0.01 %ID/g
same,tissue uptake at 120 h,"[3]; male, seminal glands, 120 h p.i., read-out: Biodistribution, Seminal glands",0.02 ± 0.01 %ID/g
same,tissue uptake at 1 h,"[3]; male, testes, 1 h p.i., read-out: Biodistribution, Testes",1.07 ± 0.11 %ID/g
same,tissue uptake at 4 h,"[3]; male, testes, 4 h p.i., read-out: Biodistribution, Testes",0.4 ± 0.14 %ID/g
same,tissue uptake at 24 h,"[3]; male, testes, 24 h p.i., read-out: Biodistribution, Testes",0.16 ± 0.02 %ID/g
same,tissue uptake at 120 h,"[3]; male, testes, 120 h p.i., read-out: Biodistribution, Testes",0.1 ± 0.01 %ID/g
same,tissue uptake at 1 h,"[3]; adrenal glands, 1 h p.i., read-out: Biodistribution, Adrenal glands",2.9 ± 1.51 %ID/g
same,tissue uptake at 4 h,"[3]; adrenal glands, 4 h p.i., read-out: Biodistribution, Adrenal glands",0.54 ± 0.48 %ID/g
same,tissue uptake at 24 h,"[3]; adrenal glands, 24 h p.i., read-out: Biodistribution, Adrenal glands",0.2 ± 0.09 %ID/g
same,tissue uptake at 120 h,"[3]; adrenal glands, 120 h p.i., read-out: Biodistribution, Adrenal glands",0.18 ± 0.06 %ID/g
same,tissue uptake at 1 h,"[3]; blood, 1 h p.i., read-out: Biodistribution, Blood",6.87 ± 0.88 %ID/g
same,tissue uptake at 4 h,"[3]; blood, 4 h p.i., read-out: Biodistribution, Blood",1.41 ± 0.6 %ID/g
same,tissue uptake at 24 h,"[3]; blood, 24 h p.i., read-out: Biodistribution, Blood",0.05 ± 0.02 %ID/g
same,tissue uptake at 120 h,"[3]; blood, 120 h p.i., read-out: Biodistribution, Blood",0.01 %ID/g
same,tissue uptake at 1 h,"[3]; bone, 1 h p.i., read-out: Biodistribution, Bone",0.96 ± 0.18 %ID/g
same,tissue uptake at 4 h,"[3]; bone, 4 h p.i., read-out: Biodistribution, Bone",0.29 ± 0.11 %ID/g
same,tissue uptake at 24 h,"[3]; bone, 24 h p.i., read-out: Biodistribution, Bone",0.13 ± 0.03 %ID/g
same,tissue uptake at 120 h,"[3]; bone, 120 h p.i., read-out: Biodistribution, Bone",0.12 ± 0.04 %ID/g
same,tissue uptake at 1 h,"[3]; brain, 1 h p.i., read-out: Biodistribution, Brain",0.13 ± 0.01 %ID/g
same,tissue uptake at 4 h,"[3]; brain, 4 h p.i., read-out: Biodistribution, Brain",0.03 ± 0.02 %ID/g
same,tissue uptake at 24 h,"[3]; brain, 24 h p.i., read-out: Biodistribution, Brain",0.01 %ID/g
same,tissue uptake at 120 h,"[3]; brain, 120 h p.i., read-out: Biodistribution, Brain",0.01 %ID/g
same,tissue uptake at 1 h,"[3]; fat, 1 h p.i., read-out: Biodistribution, Fat",0.43 ± 0.08 %ID/g
same,tissue uptake at 4 h,"[3]; fat, 4 h p.i., read-out: Biodistribution, Fat",0.12 ± 0.03 %ID/g
same,tissue uptake at 24 h,"[3]; fat, 24 h p.i., read-out: Biodistribution, Fat",0.03 ± 0.01 %ID/g
same,tissue uptake at 120 h,"[3]; fat, 120 h p.i., read-out: Biodistribution, Fat",0.02 ± 0.01 %ID/g
same,tissue uptake at 1 h,"[3]; heart, 1 h p.i., read-out: Biodistribution, Heart",1.93 ± 0.16 %ID/g
same,tissue uptake at 4 h,"[3]; heart, 4 h p.i., read-out: Biodistribution, Heart",0.45 ± 0.19 %ID/g
same,tissue uptake at 24 h,"[3]; heart, 24 h p.i., read-out: Biodistribution, Heart",0.08 ± 0.01 %ID/g
same,tissue uptake at 120 h,"[3]; heart, 120 h p.i., read-out: Biodistribution, Heart",0.05 %ID/g
same,tissue uptake at 1 h,"[3]; intestine, 1 h p.i., read-out: Biodistribution, Intestine",1.2 ± 0.2 %ID/g
same,tissue uptake at 4 h,"[3]; intestine, 4 h p.i., read-out: Biodistribution, Intestine",1.53 ± 2.04 %ID/g
same,tissue uptake at 24 h,"[3]; intestine, 24 h p.i., read-out: Biodistribution, Intestine",0.21 ± 0.05 %ID/g
same,tissue uptake at 120 h,"[3]; intestine, 120 h p.i., read-out: Biodistribution, Intestine",0.1 ± 0.04 %ID/g
same,tissue uptake at 1 h,"[3]; kidneys, 1 h p.i., read-out: Biodistribution, Kidneys",12 ± 0.83 %ID/g
same,tissue uptake at 4 h,"[3]; kidneys, 4 h p.i., read-out: Biodistribution, Kidneys",12.7 ± 3.58 %ID/g
same,tissue uptake at 24 h,"[3]; kidneys, 24 h p.i., read-out: Biodistribution, Kidneys",6.32 ± 0.43 %ID/g
same,tissue uptake at 120 h,"[3]; kidneys, 120 h p.i., read-out: Biodistribution, Kidneys",1.43 ± 0.31 %ID/g
same,tissue uptake at 1 h,"[3]; liver, 1 h p.i., read-out: Biodistribution, Liver",3.65 ± 0.25 %ID/g
same,tissue uptake at 4 h,"[3]; liver, 4 h p.i., read-out: Biodistribution, Liver",3.58 ± 0.85 %ID/g
same,tissue uptake at 24 h,"[3]; liver, 24 h p.i., read-out: Biodistribution, Liver",2.59 ± 0.31 %ID/g
same,tissue uptake at 120 h,"[3]; liver, 120 h p.i., read-out: Biodistribution, Liver",1.25 ± 0.51 %ID/g
same,tissue uptake at 1 h,"[3]; lungs, 1 h p.i., read-out: Biodistribution, Lungs",6.71 ± 3.02 %ID/g
same,tissue uptake at 4 h,"[3]; lungs, 4 h p.i., read-out: Biodistribution, Lungs",2.34 ± 0.63 %ID/g
same,tissue uptake at 24 h,"[3]; lungs, 24 h p.i., read-out: Biodistribution, Lungs",0.33 ± 0.08 %ID/g
same,tissue uptake at 120 h,"[3]; lungs, 120 h p.i., read-out: Biodistribution, Lungs",0.14 ± 0.08 %ID/g
same,tissue uptake at 1 h,"[3]; muscle, 1 h p.i., read-out: Biodistribution, Muscle",0.75 ± 0.09 %ID/g
same,tissue uptake at 4 h,"[3]; muscle, 4 h p.i., read-out: Biodistribution, Muscle",0.18 ± 0.09 %ID/g
same,tissue uptake at 24 h,"[3]; muscle, 24 h p.i., read-out: Biodistribution, Muscle",0.03 ± 0.01 %ID/g
same,tissue uptake at 120 h,"[3]; muscle, 120 h p.i., read-out: Biodistribution, Muscle",0.02 %ID/g
same,tissue uptake at 1 h,"[3]; pancreas, 1 h p.i., read-out: Biodistribution, Pancreas",1.13 ± 0.24 %ID/g
same,tissue uptake at 4 h,"[3]; pancreas, 4 h p.i., read-out: Biodistribution, Pancreas",0.31 ± 0.08 %ID/g
same,tissue uptake at 24 h,"[3]; pancreas, 24 h p.i., read-out: Biodistribution, Pancreas",0.08 ± 0.02 %ID/g
same,tissue uptake at 120 h,"[3]; pancreas, 120 h p.i., read-out: Biodistribution, Pancreas",0.05 ± 0.01 %ID/g
same,tissue uptake at 1 h,"[3]; spleen, 1 h p.i., read-out: Biodistribution, Spleen",2.06 ± 0.21 %ID/g
same,tissue uptake at 4 h,"[3]; spleen, 4 h p.i., read-out: Biodistribution, Spleen",1.02 ± 0.27 %ID/g
same,tissue uptake at 24 h,"[3]; spleen, 24 h p.i., read-out: Biodistribution, Spleen",0.64 ± 0.09 %ID/g
same,tissue uptake at 120 h,"[3]; spleen, 120 h p.i., read-out: Biodistribution, Spleen",0.35 ± 0.15 %ID/g
same,tissue uptake at 1 h,"[3]; stomach, 1 h p.i., read-out: Biodistribution, Stomach",0.74 ± 0.18 %ID/g
same,tissue uptake at 4 h,"[3]; stomach, 4 h p.i., read-out: Biodistribution, Stomach",2.33 ± 4.11 %ID/g
same,tissue uptake at 24 h,"[3]; stomach, 24 h p.i., read-out: Biodistribution, Stomach",0.42 ± 0.13 %ID/g
same,tissue uptake at 120 h,"[3]; stomach, 120 h p.i., read-out: Biodistribution, Stomach",0.2 ± 0.09 %ID/g
same,tissue uptake at 1 h,"[3]; thyroid, 1 h p.i., read-out: Biodistribution, Thyroid",2.47 ± 0.26 %ID/g
same,tissue uptake at 4 h,"[3]; thyroid, 4 h p.i., read-out: Biodistribution, Thyroid",1.66 ± 0.42 %ID/g
same,tissue uptake at 24 h,"[3]; thyroid, 24 h p.i., read-out: Biodistribution, Thyroid",1.59 ± 0.15 %ID/g
same,tissue uptake at 120 h,"[3]; thyroid, 120 h p.i., read-out: Biodistribution, Thyroid",1.03 ± 0.24 %ID/g
same,tissue to tissue ratio at 1 h,"[3]; tumour/blood, 1 h p.i., read-out: Tumour/blood",3.58 ± 0.31
same,tissue to tissue ratio at 4 h,"[3]; tumour/blood, 4 h p.i., read-out: Tumour/blood",24.3 ± 9.37
same,tissue to tissue ratio at 24 h,"[3]; tumour/blood, 24 h p.i., read-out: Tumour/blood",397 ± 123
same,tissue to tissue ratio at 120 h,"[3]; tumour/blood, 120 h p.i., read-out: Tumour/blood",339 ± 149
same,tissue to tissue ratio at 1 h,"[3]; tumour/kidney, 1 h p.i., read-out: Tumour/kidney",2.04 ± 0.15
same,tissue to tissue ratio at 4 h,"[3]; tumour/kidney, 4 h p.i., read-out: Tumour/kidney",2.47 ± 0.8
same,tissue to tissue ratio at 24 h,"[3]; tumour/kidney, 24 h p.i., read-out: Tumour/kidney",2.91 ± 0.2
same,tissue to tissue ratio at 120 h,"[3]; tumour/kidney, 120 h p.i., read-out: Tumour/kidney",1.89 ± 0.37
same,tissue to tissue ratio at 1 h,"[3]; tumour/muscle, 1 h p.i., read-out: Tumour/muscle",32.9 ± 2.98
same,tissue to tissue ratio at 4 h,"[3]; tumour/muscle, 4 h p.i., read-out: Tumour/muscle",194 ± 82.7
same,tissue to tissue ratio at 24 h,"[3]; tumour/muscle, 24 h p.i., read-out: Tumour/muscle",556 ± 108
same,tissue to tissue ratio at 120 h,"[3]; tumour/muscle, 120 h p.i., read-out: Tumour/muscle",173 ± 19
same,excreta dose per gram or mL at 1 h,"[3]; urine, 1 h p.i.",158 ± 83.1 %ID/g
same,excreta dose per gram or mL at 4 h,"[3]; urine, 4 h p.i.",124 ± 8.4 %ID/g
same,excreta dose per gram or mL at 24 h,"[3]; urine, 24 h p.i.",4.39 ± 2.89 %ID/g
same,excreta dose per gram or mL at 120 h,"[3]; urine, 120 h p.i.",1.11 ± 0.72 %ID/g
same,Tumour uptake / retention in SPECT images,SK-MEL-1 human melanoma,lower tumour uptake was observed
